# Assay results from PMC4604124, “In Vitro Characterization of the Pharmacological Properties of the Anti-Cancer Chelator, Bp4eT, and Its Phase I Metabolites” (PLoS ONE, 2015).
# Where “and” joins values, the source holds several entries; their conditions need not be identical. Identical values can stand only once.
# Assays:
# [1] = system: caspases 3/7; test: Caspase activity, luminescent kit, caspases 3/7; type: cell-based, human
# Description: (§1) To assess the effect of the compounds on caspase activity, MCF-7 cells were incubated with 100 nM Bp4eT or its metabolites for 3, 24 or 72 h/37°C in 96-well plates, as described above. The cells were then lysed by adding 100 μL of cold lysis buffer (100 mM HEPES, 10 mM CHAPS, 10 mM D-L-dithiothreitol, pH 7.4) to 100 μL of medium in each well. Lysates were immediately frozen at -80°C. Thawed lysates were used to assess caspase activity using luminescent kits for caspases 3/7, 8 and 9 (Promega, Madison, WI, USA). The luminescence was measured using the Tecan Infinite 200M plate reader. Caspase activity in the experimental groups was corrected according to the cellular viability of each group and expressed as a percentage of activity of the untreated control (100%).
# [2] = system: A549 human lung adenocarcinoma cells; test: MTT cytotoxicity assay, A549 cells; type: cell-based; conditions: for IC50: MTT
# Description: For cytotoxicity experiments, cancer cells were seeded at a density of 5,000 (MCF-7), 10,000 (HL-60) or 2,000 cells/well (HCT116 and A549) in 96-well plates (TPP) for 24 h/37°C prior to the addition of examined agents. The non-cancerous cells, 3T3 and H9c2 cells, were cultured for 24 h/37°C in 96-well plates at a density of 10,000 cells/well, the medium was then changed to serum- and pyruvate-free DMEM (Sigma-Aldrich) and incubated with the cells for another 24 h/37°C. The cytotoxic effects of Bp4eT and its metabolites were studied at different concentrations after a 72 h/37°C incubation. In order to aid the dissolution of the lipophilic ligands, 0.1% dimethyl sulfoxide (v/v) (DMSO; Sigma-Aldrich) was present in the culture medium of all groups. At this concentration, DMSO had no effect on cellular proliferation or viability.
# The viability of cells were determined using an MTT assay (Sigma-Aldrich) according to previously established methods. The optical density of soluble MTT was measured at λ = 570 nm, subtracting the λ = 690 nm background using a Tecan Infinite 200M plate reader (Tecan Group, Männedorf, Switzerland). The viability or proliferation of experimental groups was expressed as a percentage of the untreated controls (100%).
# SigmaStat for Windows 3.5 (Systat Software, San Jose, CA, USA) statistical software package was utilized to analyze results. The data are expressed as the mean ± SD of a given number of experiments. Statistical significance was determined using a one-way ANOVA with a Bonferroni post-hoc test or Student’s t-test. The results were considered to be statistically significant when p < 0.05. The IC50 values were calculated using CalcuSyn 2.0 software (Biosoft, Cambridge, UK). Cell cycle analysis was evaluated using MultiCycle AV Software (Phoenix Flow Systems, San Diego, CA, USA).
# [3] = system: caspase 9; test: Caspase activity, luminescent kit, caspase 9; type: cell-based, human; conditions: for Caspase 9 activity, % of the control: 100 nM, MCF-7, corrected for viability; for kaspáza 9, průměry (means of raw signal): mean of 4 experiments; for kaspáza 9, raw signal / kaspáza 9, signal / viabilita: individual experiments by date
# Description: as §1
# [4] = 72 hodin, mean, normalised to viability
# [5] = 72 hodin, normalised to viability, mean
compound,measurement,setting,value
"CCNC(=S)NN=C(c1ccccc1)c1ccccn1 [Bp4eT, 2-benzoylpyridine 4-ethyl-3-thiosemicarbazone]","kaspáza (3) a 7, průměry (means of raw signal)","[1]; 72 hodin (72 h), mean of 4 experiments",6404.25
same,"kaspáza (3) a 7, raw signal","[1]; 72 hodin, individual experiments by date",10190.5 and 6963 and 3947 and 4516.5
same,"kaspáza (3) a 7, raw signal, průměry","[1]; 72 hodin, mean",6404.25
same,"kaspáza (3) a 7, % kontroly",[1]; [4],318.49 % kontroly
same,"kaspáza (3) a 7, signal / viabilita","[1]; 72 hodin, normalised to viability, individual experiments by date",376.172 and 257.032 and 145.7 and 166.722
same,"kaspáza (3) a 7, signal / viabilita, průměry",[1]; [5],236.406
same,"Therapeutic index, IC50 non-cancerous cells / IC50 neoplastic cells",[2]; 3T3/A549,2.2
same,"MTT, relative to control (0 = 100)","[2]; A549, 2 000 b/j, 3 nM, průměr (mean)",92.19
same,"MTT, relative to control (0 = 100)","[2]; A549, 2 000 b/j, 3 nM, single experiment (date)",91.5535 and 92.8133 and 91.0654 and 88.0734 and 97.4647
same,"MTT, relative to control (0 = 100)","[2]; A549, 2 000 b/j, 10 nM, průměr (mean)",91.72
same,"MTT, relative to control (0 = 100)","[2]; A549, 2 000 b/j, 10 nM, single experiment (date)",91.5177 and 92.1605 and 92.1041 and 86.392 and 96.4421
same,"MTT, relative to control (0 = 100)","[2]; A549, 2 000 b/j, 30 nM, průměr (mean)",87.89
same,"MTT, relative to control (0 = 100)","[2]; A549, 2 000 b/j, 30 nM, single experiment (date)",87.7056 and 88.2789 and 85.7469 and 83.2321 and 94.498
same,"MTT, relative to control (0 = 100)","[2]; A549, 2 000 b/j, 100 nM, průměr (mean)",69.03
same,"MTT, relative to control (0 = 100)","[2]; A549, 2 000 b/j, 100 nM, single experiment (date)",72.0253 and 71.8755 and 68.5876 and 61.5642 and 71.0965
same,"MTT, relative to control (0 = 100)","[2]; A549, 2 000 b/j, 300 nM, průměr (mean)",52.20
same,"MTT, relative to control (0 = 100)","[2]; A549, 2 000 b/j, 300 nM, single experiment (date)",56.5532 and 52.1351 and 48.5459 and 51.5538
same,"MTT, relative to control (0 = 100)","[2]; A549, 2 000 b/j, 1000 nM, průměr (mean)",44.75
same,"MTT, relative to control (0 = 100)","[2]; A549, 2 000 b/j, 1000 nM, single experiment (date)",46.6699 and 42.1761 and 41.9617 and 48.1966
same,"MTT, relative to control (0 = 100)","[2]; A549, 2 000 b/j, 3000 nM, průměr (mean)",30.92
same,"MTT, relative to control (0 = 100)","[2]; A549, 2 000 b/j, 3000 nM, single experiment (date)",34.7604 and 31.7204 and 27.6953 and 29.4937
same,IC50,"[2]; A549, 2 000 b/j, single experiment (date)",550 nM and 407 nM and 670 nM
same,"Therapeutic index, IC50 non-cancerous cells / IC50 neoplastic cells",[2]; H9c2/A549,0.9
same,IC50,"[2]; Homo sapiens, A549, 72 h, A549, 72 h/37°C, mean ± SD, n ≥ 4",593 ± 148 nM
same,IC50,"[2]; Homo sapiens, A549, A549, 2 000 b/j, průměr (mean)",593 nM
same,IC50,"[2]; Homo sapiens, A549, A549, 2 000 b/j, single experiment (date)",744 nM
same,"Therapeutic indices, range",[2]; against A549 cells (H9c2/A549 and 3T3/A549),0.9–2.2
same,"Caspase 9 activity, % of the control",[3]; 24 h,125%
same,"Caspase 9 activity, % of the control",[3]; 72 h,249%
same,"kaspáza 9, % kontroly","[3]; 3 hodiny (3 h), % of control",104.85%
same,"kaspáza 9, průměry (means of raw signal)",[3]; 3 hodiny (3 h),3805.38
same,"kaspáza 9, raw signal",[3]; 3 hodiny,6578.5 and 2900.5 and 3521 and 2221.5
same,"kaspáza 9, raw signal, průměry","[3]; 3 hodiny, mean",3805.38
same,"kaspáza 9, % kontroly","[3]; 3 hodiny, mean, normalised to viability",111.23 % kontroly
same,"kaspáza 9, signal / viabilita","[3]; 3 hodiny, normalised to viability",68.2861 and 30.1078 and 36.5487 and 23.0596
same,"kaspáza 9, signal / viabilita, průměry","[3]; 3 hodiny, normalised to viability, mean",39.5005
same,"kaspáza 9, % kontroly","[3]; 24 hodin (24 h), % of control",66.84%
same,"kaspáza 9, průměry (means of raw signal)",[3]; 24 hodin (24 h),2704
same,"kaspáza 9, raw signal",[3]; 24 hodin,3466.5 and 1743.5 and 3244.5 and 2361.5
same,"kaspáza 9, raw signal, průměry","[3]; 24 hodin, mean",2704
same,"kaspáza 9, % kontroly","[3]; 24 hodin, mean, normalised to viability",124.96 % kontroly
same,"kaspáza 9, signal / viabilita","[3]; 24 hodin, normalised to viability",65.5914 and 32.9897 and 61.3908 and 44.6831
same,"kaspáza 9, signal / viabilita, průměry","[3]; 24 hodin, normalised to viability, mean",51.1638
same,"kaspáza 9, % kontroly","[3]; 72 hodin (72 h), % of control",66.22%
same,"kaspáza 9, průměry (means of raw signal)",[3]; 72 hodin (72 h),14621.1
same,"kaspáza 9, raw signal",[3]; 72 hodin,22930.5 and 14080 and 11064.5 and 10409.5
same,"kaspáza 9, raw signal, průměry","[3]; 72 hodin, mean",14621.1
same,"kaspáza 9, % kontroly",[3]; [4],249.26 % kontroly
same,"kaspáza 9, signal / viabilita","[3]; 72 hodin, normalised to viability",846.456 and 519.749 and 408.435 and 384.256
same,"kaspáza 9, signal / viabilita, průměry",[3]; [5],539.724
